Laboratory results from US20260176279A1, “DUAL RAF AND TUBULIN INHIBITORS AND METHODS OF USE THEREOF” (Deciphera Pharmaceuticals, LLC, priority 2023, published 2026).

Tests used:
HCT-116 cells = experiment: HCT-116 Cell Proliferation Assay; assay type: cell-based; details: Homo sapiens, HCT-116; Table 4; read-out: HCT-116 IC50
Protocol: HCT-116 cells (catalog #CCL-247) are obtained from the American Type Culture Collect (ATCC, Manassas, VA). Briefly, cells are grown in McCoy's 5A supplemented with 10% characterized fetal bovine serum (Invitrogen, Carlsbad, CA) and 1% Penicillin/Streptomycin/L-Glutamine at 37° C., 5% CO2, and 95% humidity. Cells are expanded until reaching 70-95% confluency at which point they are sub-cultured or harvested for assay use. A serial dilution of test compound is dispensed into a 384-well black clear bottom plate in triplicate. 375 cells are added per well in 50 μL complete growth medium in the 384-well plate. Plates are incubated for 67 to 72 h at 37° C., 5% CO2, and 95% humidity. At the end of the incubation, 40 μL of a […] solution of resazurin (Sigma, St. Louis, MO) in PBS is added to each well of the plate and plates are incubated for an additional 4 to 5 hours at 37° C., 5% CO2, and 95% humidity. Plates are read on a Synergy2 or equivalent reader (Biotek, Winooski, VT) using an excitation of 540 nm and an emission of 600 nm. Data is analyzed using Prism software (Graphpad, San Diego, CA) to calculate IC50 values.

tubulin = experiment: Cellular Tubulin Polymerization Assay (HCT-116 cells); assay type: cell-based; details: Table 4, HCT-116 cells; read-out: Tubulin Cellular IC50
MiaPaca-2 cells = experiment: MiaPaca-2 Cell Proliferation Assay; assay type: cell-based; details: Homo sapiens, MIA PaCa-2; Table 4; read-out: MiaPaca-2 IC50
Protocol: MiaPaca-2 cells (catalog #CRL-1420) are obtained from the American Type Culture Collect (ATTC, Manassas, VA). Briefly, cells were grown in DMEM supplemented with 10% characterized fetal bovine serum (Invitrogen, Carlsbad, CA), 2.5% New Zealand sourced horse serum and 1% Penicillin/Streptomycin/L-Glutamine at 37° C., 5% CO2, and 95% humidity. Cells are expanded until reaching 70-95% confluency at which point they are sub-cultured or harvested for assay use. For assays completed in 96-well plates, a serial dilution of test compound is dispensed into a 96-well black clear bottom plate in triplicate. Three thousand cells are added per well in 200 μL complete growth medium in the 96-well plate. Plates are incubated for 67 to 72 h at 37° C., 5% CO2, and 95% humidity. At the end of the incubation, 40 μL of a […] solution of resazurin (Sigma, St. Louis, MO) in PBS is added to each well of the plate and plates are incubated for an additional 5 to 6 hours at 37° C., 5% CO2, and 95% humidity. For 384-well assays, a threefold, 8-point serial dilution of compound was spotted column wise into a 384 well black, clear bottom, tissue culture treated plate using the Beckman Coulter Echo 650. Likewise, a threefold, 8-point serial dilution of cobimetinib was spotted row wise into the 384 well black, clear bottom plate containing compound. DMSO concentration was constant across all wells at 0.4%. Seven hundred fifty cells are added per well in 50 μL complete growth medium in each 384-well plate. Plates are incubated for 67 to 72 h at 37° C., 5% CO2, and 95% humidity. At the end of the incubation, 10 μL of a 440 μM solution of resazurin (Sigma, St. Louis, MO) in PBS is added to each well of the plate and plates are incubated for an additional 4 to 6 h at 37° C., 5% CO2, and 95% humidity. Plates are read on a Synergy2 or equivalent reader (Biotek, Winooski VT) using an excitation of 540 nm and an emission of 600 nm. Data is analyzed using Prism software (Graphpad, San Diego, CA) to calculate IC50 values.

HPAF-II cells = experiment: HPAF-II Cell Proliferation Assay; assay type: cell-based; details: Homo sapiens, HPAF-II; Table 4; read-out: HPAF-II IC50
Protocol: HPAF-II cells (catalog #CRL-1997) are obtained from the American Type Culture Collect (ATCC, Manassas, VA). Briefly, cells are grown in Minimum Essential Media supplemented with 10% characterized fetal bovine serum (Invitrogen, Carlsbad, CA) and 1% Penicillin/Streptomycin/L-Glutamine at 37° C., 5% CO2, and 95% humidity. Cells are expanded until reaching 70-95% confluency at which point they are sub-cultured or harvested for assay use. A serial dilution of test compound is dispensed into a 384-well black clear bottom plate in triplicate. 750 cells are added per well in 50 μL complete growth medium in the 384-well plate. Plates are incubated for 115 to 120 h at 37° C., 5% CO2, and 95% humidity. At the end of the incubation, 40 μL of a […] solution of resazurin (Sigma, St. Louis, MO) in PBS is added to each well of the plate and plates are incubated for an additional 18 to 24 h at 37° C., 5% CO2, and 95% humidity. Plates are read on a Synergy2 or equivalent reader (Biotek, Winooski, VT) using an excitation of 540 nm and an emission of 600 nm. Data is analyzed using Prism software (Graphpad, San Diego, CA) to calculate IC50 values.

C-Raf kinase = molecular target: T1, C-Raf kinase (Homo sapiens, UniProt P04049, Y340D/Y341D); experiment: Biochemical Assay for C-Raf (coupled pyruvate kinase/lactate dehydrogenase assay); details: Table 4; read-out: CRAF IC50
T1 construct: C-Raf residues 306-end; Y340D, Y341D with N-; GST (N); purchased Eurofins

B-Raf kinase = molecular target: T2, B-Raf kinase (Homo sapiens, UniProt P15056); experiment: Biochemical Assay for B-Raf (coupled pyruvate kinase/lactate dehydrogenase assay); details: Table 4; read-out: BRAF IC50
T2 construct: GST (N); purchased Sigma
T2 sequence (P15056 416-766): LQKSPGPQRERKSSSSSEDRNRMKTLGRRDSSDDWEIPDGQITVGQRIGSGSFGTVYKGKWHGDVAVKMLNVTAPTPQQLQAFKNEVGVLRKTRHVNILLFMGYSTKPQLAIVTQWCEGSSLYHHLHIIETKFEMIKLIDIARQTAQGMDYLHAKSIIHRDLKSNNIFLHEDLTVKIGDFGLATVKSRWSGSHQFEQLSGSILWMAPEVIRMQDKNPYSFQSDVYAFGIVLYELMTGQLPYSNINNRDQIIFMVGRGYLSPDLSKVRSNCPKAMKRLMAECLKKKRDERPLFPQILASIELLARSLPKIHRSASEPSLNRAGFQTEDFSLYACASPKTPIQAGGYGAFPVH

T1 sequence (P04049 307-648 Y340D/Y341D): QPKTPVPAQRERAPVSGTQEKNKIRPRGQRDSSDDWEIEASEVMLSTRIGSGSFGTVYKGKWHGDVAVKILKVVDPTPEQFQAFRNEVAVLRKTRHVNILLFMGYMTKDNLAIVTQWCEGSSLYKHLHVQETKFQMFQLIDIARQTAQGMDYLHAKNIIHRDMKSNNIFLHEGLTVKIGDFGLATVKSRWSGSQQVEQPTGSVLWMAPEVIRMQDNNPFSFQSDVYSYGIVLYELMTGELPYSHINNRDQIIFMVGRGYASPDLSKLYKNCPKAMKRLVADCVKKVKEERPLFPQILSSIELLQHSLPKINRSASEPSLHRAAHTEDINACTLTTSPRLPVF

IC50 (HCT-116 cells)	IC50 (tubulin)	IC50 (MiaPaca-2 cells)	IC50 (C-Raf kinase)	IC50 (B-Raf kinase)	Compound	IC50 (HPAF-II cells)
0.1 to 0.5 µM	1 to 10 µM	–	–	–	Cc1ccc(NC(=O)Nc2cccc(C(F)(F)F)c2)cc1-c1cc(OCCO)nc(N2CCOCC2)c1 [reference compound]	–
1 to 10 µM	–	1 to 10 µM	–	–	Cc1ccc(NC(=O)NC2CCCCCC2)cc1-c1cc(OCCO)nc(N2CCOCC2)c1 [reference compound]	1 to 10 µM
1 to 10 µM	–	1 to 10 µM	–	–	Cc1ccc(NC(=O)N[C@@H]2CCc3ccccc32)cc1-c1cc(OCCO)nc(N2CCOCC2)c1 [reference compound]	1 to 10 µM
1 to 10 µM	–	1 to 10 µM	–	–	Cc1cc(F)c(NC(=O)Nc2cnn(C(C)(C)C)c2)cc1-c1cc(OCCN(C)C)nc(N2CCOCC2)c1 [reference compound]	1 to 10 µM
1 to 10 µM	–	–	1 to 10 µM	1 to 10 µM	Cc1ccc(NC(=O)Nc2cn(C)nc2C(F)(F)F)cc1-c1cc(OCCO)nc(N2CCOCC2)c1 [reference compound]	1 to 10 µM
1 to 10 µM	–	–	–	1 to 10 µM	Cc1ccc(NC(=O)Nc2cnn(CC(F)(F)F)c2)cc1-c1cc(OCCO)nc(N2CCOCC2)c1 [reference compound]	1 to 10 µM
1 to 10 µM	1 to 10 µM	–	–	–	CC(=O)Nc1cc(-c2cc(-c3cc(NC(=O)Nc4ccc(C(F)(F)F)cc4)cnc3C)ccn2)ccn1 [reference compound]	1 to 10 µM
1 to 10 µM	1 to 10 µM	0.5 to 1 µM	–	–	CNC(=O)c1cc(-c2cc(-c3cc(NC(=O)Nc4ccnc(C(C)(C)C#N)c4)ccc3C)ccn2)ccn1 [reference compound]	–
1 to 10 µM	–	1 to 10 µM	–	–	CNC(=O)c1cc(-c2cnnc(-c3cc(NC(=O)N4CCC(C(C)(C)C)C4)ccc3C)c2)ccn1 (centres unmarked) [reference compound]	1 to 10 µM
1 to 10 µM	–	–	–	–	CNC(=O)c1cc(-c2cc(-c3cc(NC(=O)NC4CCCCC4)c(F)cc3C)cc(OCCO)n2)ccn1 [reference compound]	1 to 10 µM
